No end group written: not given here.

For series [1] the following is noted: cited from earlier work.
For series [2], the target named is hepatocyte growth factor receptor (c-Met) (Homo sapiens, UniProt P08581). Particulars: peptide identified by phage display.
A short description of series [3]: In vitro transdermal permeation, modified Franz diffusion cells, HPLC. It is filed as in vitro ADME, human. Here is the method: Finally, a number of these cosolvent formulations were evaluated for their in vitro transdermal permeation properties (FIG. 3X2). Note that these cosolvents are also known to function as permeability enhancers in some formulations (10-1 1). For this series of experiments, human skin obtained from abdominoplastic surgery was mounted on modified Franz diffusion cells and drug permeation was determined as a function of time using high performance liquid chromatography.
The Franz diffusion cell is an essential tool in the field of transdermal drug delivery. Patient-derived skin is placed between the cell cap and the solution chamber. The cell cap is exposed to the environment allowing the stratum corneum to also be exposed to the environment. The solution chamber is filled with an isotonic diffusion buffer. Additionally the solution chamber has an injection port that allows for difhsion buffer to be removed without disturbing the setup. Finally, the solution chamber is surrounded by a water jacket that allows for temperature control. The Franz diffusion cell allows for in vitro studies of transdennal delivery to be carried out using physiological conditions. Note that penetration of any solute through the patient-derived skin into the difhsion buffer is equivalent to that solute reaching systemic circulation in an in vivo system. […] Determination of silica content in different layers of the skin will be determined using enzymatic tissue digestion, and inductively coupled plasma mass spectroscopy (ICP mass spec). Both the SLB and nanoporous particle core can be fluorescently tagged to allow for confocal microscopy. In addition, the skin samples can be microtomed after treatment and incubation with protocells so that they can be imaged using TEM.

Chain of hepatocyte growth factor receptor (c-Met) (P08581 25-932): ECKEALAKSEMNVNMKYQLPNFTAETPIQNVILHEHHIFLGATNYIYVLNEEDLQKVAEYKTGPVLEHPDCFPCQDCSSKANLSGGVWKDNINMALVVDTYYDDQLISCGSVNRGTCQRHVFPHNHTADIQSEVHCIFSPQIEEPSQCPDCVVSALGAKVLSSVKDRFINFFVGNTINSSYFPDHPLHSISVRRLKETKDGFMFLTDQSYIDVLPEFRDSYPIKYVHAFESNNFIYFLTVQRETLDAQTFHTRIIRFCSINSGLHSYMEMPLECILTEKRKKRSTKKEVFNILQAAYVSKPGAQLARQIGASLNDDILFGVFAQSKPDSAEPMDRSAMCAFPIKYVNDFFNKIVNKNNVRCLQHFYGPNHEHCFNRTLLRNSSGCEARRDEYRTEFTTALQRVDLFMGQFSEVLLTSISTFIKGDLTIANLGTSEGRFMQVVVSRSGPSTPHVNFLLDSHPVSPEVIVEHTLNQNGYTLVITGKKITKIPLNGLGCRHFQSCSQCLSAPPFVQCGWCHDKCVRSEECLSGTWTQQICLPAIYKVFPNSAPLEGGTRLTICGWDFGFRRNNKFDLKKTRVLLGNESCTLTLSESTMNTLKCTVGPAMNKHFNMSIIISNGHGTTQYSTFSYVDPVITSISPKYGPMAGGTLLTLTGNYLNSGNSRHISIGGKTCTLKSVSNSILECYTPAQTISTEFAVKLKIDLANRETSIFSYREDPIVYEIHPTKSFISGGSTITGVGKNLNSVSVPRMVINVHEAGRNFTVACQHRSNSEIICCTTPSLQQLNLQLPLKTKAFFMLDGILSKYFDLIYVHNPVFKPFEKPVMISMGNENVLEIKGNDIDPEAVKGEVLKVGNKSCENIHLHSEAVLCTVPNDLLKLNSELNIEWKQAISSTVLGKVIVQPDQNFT

As to `CC(C)Cc1ccc(C(C)C(=O)O)cc1` (stereo not drawn) [ibuprofen], the “solubility in H2O” value in series [1] is “insoluble in H2O”.
As to `CN1CCCC1c1cccnc1` (stereo not drawn) [Nicotine], the “solubility in H2O” value in series [1] is on record as “miscible in H2O”.
With ASVHFPP [MC40], in series [2], the “affinity for hepatocyte growth factor receptor (c-Met)” value was “nanomolar affinity”.
In the case of `Cc1ccc(NC(=O)c2ccc(CN3CCN(C)CC3)cc2)cc1Nc1nccc(-c2cccnc2)n1` [Imatinib], in series [3] (DMSO), the “permeability through the skin” value is “highest permeability”. Also, in series [3] (DMSO formulation), the “flux (rate of permeation through the skin)” value worked out at 0.225 μg/cm2hr. In addition, the “permeation through the skin” value in series [3] (water (pH 7) as solvent system, 24 hours) is reported as “no imatinib permeated through the skin”.

The values above are taken from patent publication US20170232115A1 (priority 2011, published 2017).
